What was measured:
DeaD strain BB579 = experiment: yeast Death of Daughters (DeaD) lifespan assay, reversal of nicotinamide (NAM) lifespan shortening; format: cell-based, S. cerevisiae (yeast); details: for fold induction at 0.125 µM / EC50: Saccharomyces cerevisiae; for fold induction at 0.125 µM: BB579, compound 125 nM; for fold induction at 0.125 µM / average improvement, 0.5 to 100 nM: fold improvement in DeaD lifespan; for fold induction at 0.125 µM / average improvement, 250 nM to 1μM / average improvement, 0.5 to 100 nM: 0.75 mM NAM; for average improvement, 250 nM to 1μM: fold improvement in DeaD lifespan (OD600 at 60 h normalized to no drug control), compound 250 nM to 1μM; for EC50: BB579, read-out: C50 (concentration that yields half the maximal activity) by DeaD assay; for average improvement, 0.5 to 100 nM: compound 0.5 to 100 nM
Protocol: The C50 (50% maximal activity) is a measure of the efficacy of a compound as a LAC and is determined by quantifying the dose-response curve for each LAC by DeaD assay in the presence and absence of nicotinamide. The C50 is the concentration of LAC that yields half the maximal activity. Dose response curves will generally peak and then decline. The decline is most likely due to toxicity at higher LAC concentrations. The C50 is determined relative to the maximal lifespan extension (the peak value). C50 values are provided for C1-5.
The compounds listed in Table 1 of Example 3 were assessed for their anti-aging activities using the yeast Death of Daughters (DeaD) explicative lifespan assay. Specifically, the compounds were assessed for their capacity to reverse the lifespan shortening effect of exogenous nicotinamide (NAM), which is a known inhibitor of the anti-aging protein Sir2p (Anderson et al., 2003; Bitterman et al., 2002). These compounds were compared to the activities of known cluster 1 compounds, S3-5, and #3-11.
“Activity” here is defined herein as the fold improvement in DeaD lifespan in the presence of 0.75 mM NAM relative to lifespan in the absence of cluster 1 compounds, over a range of compound concentrations between 0.5 nm-1 μm. This “activity” value is a means of assessing the usefulness of a compound as a LAC. The assays were performed as follows. DeaD strain BB579 was grown overnight in a permissive (galactose-containing) medium to mid-log phase, and then diluted to an OD600 of 0.0001 in restrictive (glucose-containing) medium with 0.75 mM NAM and the compound to be tested. Cells were then incubated at 30° C. for 3 days, with shaking and OD600 measurement every 20 minutes. The OD600 reading after 60 hours in restrictive medium, normalized to the same measurement for the “no drug” control, was used as the number for comparison.
Five of the compounds with higher activity than S3-5 were selected for further study and were designated C1-1, C1-2, C1-3, C1-4, and C1-5 (see Table 2, Example 4). All data in FIGS. 1A(1)-(6) are from media containing 0.75 mM NAM. Note the different ranges of the X axes in FIGS. 1A(1)-(6)—very different C50 values for the compounds of the present invention compared the known C1 cluster compounds. […] All five had C50 values below 50 nM, while the C50 value for S3-5 was about 650 nM, and the C50 for S1-9 was about 350 nM.

RAW 264.7 cells = experiment: LPS-induced TNF-α secretion from RAW 264.7 cells (ELISA); format: cell-based, murine; details: compound 1 micromolar, LPS 10 ng/ml for 6 hrs; FIG. 3
Protocol: FIG. 3. […] To obtain the data summarized in FIG. 3, RAW […] cells were incubated with Scrims (compounds of present invention) (1 uM), PI3K inhibitor positive control (LY-294002; 25 uM) or vehicle (DMSO) for 1 hr. LPS (10 ng/ml) was added to the medium. 6 hrs post LPS administration medium was collected and analyzed for TNFa levels using ELISA.
In vitro anti-inflammatory activity in RAW 264.7 cells (murine leukaemic monocyte macrophage cell line): Lipopolysaccharide (LPS)-induced secretion of cytokines from RAW cells is a recognized in vitro assay for anti-inflammatory drugs. The anti-inflammatory activities of C1-1, C1-2, C1-3, C1-4, and C1-5 in the RAW cell model. RAW cells exposed to LPS were incubated with each of the five molecules at 1 micromolar concentration. The PIK3 inhibitor LY-294002 was used at 25 micromolar as a positive control. […] LPS was administered at 10 ng/ml for 6-hrs. TNF-α levels were quantified by ELISA assay. Results are presented as % of control with standard deviations of three replicates.

[1] = system: strain FY839 (healthy wild-type); experiment: Toxicity of compounds by yeast growth assay; format: cell-based; details: FY839, inset in FIG. 2
Protocol: The toxicity of compounds C1-1, C1-2, C1-3, C1-4, and C1-5 in yeast was assessed by determining their effects on growth of a wild-type yeast strain. FIG. 2 is a graphical representation of the toxicity data. The yeast used was strain FY839 (healthy wild-type) growing in SCD. At 12 hours all were in log phase. […] This concentration is many-fold higher than the effective concentrations of these compounds as assessed by DeaD lifespan assays.

| Compound | fold induction at 0.125 µM (DeaD strain BB579) | average improvement, 250 nM to 1μM (DeaD strain BB579) | other results |
| --- | --- | --- | --- |
| CCC(=O)C1C(=O)CC(C(C)C)CC1=O (stereo not shown) [compound 22932] | 1.76 | 1.80 | – |
| CCC(=O)C1C(=O)CC(C2CC3C=CC2C3)CC1=O (stereo not shown) [SRI# 22965, 1,3-cyclohexanedione, 2-propanoyl-5-[bicyclo[2.2.1]hept-2-en-5-yl]-] | – | – | EC50 (DeaD strain BB579): < 50 nM; reduction of secreted TNF-α relative to vehicle treated cells (RAW 264.7 cells): exhibited anti-inflammatory activity |
| CC(=O)C1C(=O)CC(c2ccc(F)cc2)CC1=O (stereo not shown) [compound 22850] | – | 1.59 | – |
| O=C1CC(c2cccs2)CC(=O)C1C(=O)C1CC1 (stereo not shown) [compound 22897] | 1.25 | 1.85 | – |
| CC(=O)C1C(=O)CC(c2cn(C)c3ccccc23)CC1=O (stereo not shown) [compound 22939] | – | 1.60 | – |
| CC(=O)C1C(=O)CC(c2ccc3c(c2)OCO3)CC1=O (stereo not shown) [compound 22935] | – | 1.51 | – |
| CCCCCC1CC(=O)C(C(=O)CC)C(=O)C1 (stereo not shown) [compound 22945] | 1.96 | 2.54 | – |
| CCCCC1CC(=O)C(C(C)=O)C(=O)C1 (stereo not shown) [compound 22942] | 2.87 | 2.49 | average improvement, 0.5 to 100 nM (DeaD strain BB579): 1.71 |
| CCC(=O)C1C(=O)CC(C2CCCCC2)CC1=O (stereo not shown) [compound 22788] | 3.4 | 2.74 | average improvement, 0.5 to 100 nM (DeaD strain BB579): 1.75 |
| CCCCCC1CC(=O)C(C(C)=O)C(=O)C1 (stereo not shown) [compound 22944] | 2.72 | 2.28 | average improvement, 0.5 to 100 nM (DeaD strain BB579): 1.21 |
| CC(C)C(=O)C1C(=O)CC(c2ccc(Cl)cc2Cl)CC1=O (stereo not shown) [compound 22890] | – | 1.46 | – |
| CC(=O)C1C(=O)CC(C2CC3C=CC2C3)CC1=O (stereo not shown) [compound 22856] | 3.18 | 2.18 | – |
| CC(=O)C1C(=O)CC(c2ccco2)CC1=O (stereo not shown) [compound 22848] | – | 1.58 | – |
| O=C1CC(c2ccccc2)CC(=O)C1C(=O)C1CC1 (stereo not shown) [compound 22878] | 2.62 | 2.11 | – |
| O=C1CC(c2ccc(Cl)cc2Cl)CC(=O)C1C(=O)C1CC1 (stereo not shown) [compound 22889] | – | 1.64 | – |
| CCCCC1CC(=O)C(C(C)=O)C(=O)C1 (stereo not shown) [SRI# 22942, 1,3-cyclohexanedione, 2-acetyl-5-butyl-] | – | – | EC50 (DeaD strain BB579): < 50 nM; reduction of secreted TNF-α relative to vehicle treated cells (RAW 264.7 cells): exhibited anti-inflammatory activity; toxic effects on growth at concentrations below 1 μM [1]: little or no toxic effects on growth |
| CCCCCCC1CC(=O)C(C(C)=O)C(=O)C1 (stereo not shown) [compound 22926] | 0.99 | 1.87 | – |
| CCC(=O)C1C(=O)CC(c2ccco2)CC1=O (stereo not shown) [compound 22791] | 1.77 | 2.15 | – |
| CC(C)C(=O)C1C(=O)CC(c2ccccc2)CC1=O (stereo not shown) [compound 22880] | 1.49 | 1.59 | – |
| COc1cc(OC)c(C2CC(=O)C(C(=O)C3CC3)C(=O)C2)c(OC)c1 (stereo not shown) [compound 22821] | 1.27 | 1.62 | – |

| Compound | fold induction at 0.125 µM (DeaD strain BB579) | average improvement, 250 nM to 1μM (DeaD strain BB579) | other results |
| --- | --- | --- | --- |
| CCC(=O)C1C(=O)CC(C2CC3C=CC2C3)CC1=O (stereo not shown) [compound 22965] | 3.65 | 2.57 | average improvement, 0.5 to 100 nM (DeaD strain BB579): 1.72 |
| CCC(=O)C1C(=O)CC(c2ccc3c(c2)OCO3)CC1=O (stereo not shown) [compound 22936] | – | 1.46 | – |
| CC(=O)C1C(=O)CC(c2cccs2)CC1=O (stereo not shown) [compound 22933] | 2.71 | 2.55 | average improvement, 0.5 to 100 nM (DeaD strain BB579): 1.70 |
| CCCC(=O)C1C(=O)CC(c2cn(C)c3ccccc23)CC1=O (stereo not shown) [compound 22947] | – | 1.64 | – |
| CC(C)C(=O)C1C(=O)CC(c2cccs2)CC1=O (stereo not shown) [compound 22898] | – | 1.37 | – |
| CCC(=O)C1C(=O)CC(c2cccs2)CC1=O (stereo not shown) [compound 22930] | 2.21 | 2.33 | – |
| CC(=O)C1C(=O)CC(C(C)C)CC1=O (stereo not shown) [compound 22931] | 1.86 | 2.09 | – |
| CC(=O)C1C(=O)CC(c2ccc(Cl)cc2Cl)CC1=O (stereo not shown) [compound 22840] | 2.24 | 1.87 | – |
| CCC1CC(=O)C(C(C)=O)C(=O)C1 (stereo not shown) [compound 22941] | – | 1.62 | – |
| CCCC(=O)C1C(=O)C(C(C)=O)C(=O)CC1CC(C)CCC (stereo not shown) [#3-11, reference compound] | – | 1.30 | – |
| O=C1CC(c2ccc(F)cc2)CC(=O)C1C(=O)C1CC1 (stereo not shown) [compound 22835] | 2.48 | 2.21 | – |
| CCCCCCC1CC(=O)C(C(=O)CC)C(=O)C1 (stereo not shown) [compound 22927] | – | 1.43 | – |
| Cc1ccc(C2CC(=O)C(C(=O)C3CC3)C(=O)C2)cc1 (stereo not shown) [compound 22824] | 1.32 | 1.42 | – |
| CC(=O)C1C(=O)CC(c2c(F)cccc2Cl)CC1=O (stereo not shown) [compound 22847] | 3.25 | 2.17 | – |
| CCC(=O)C1C(=O)CC(c2c(F)cccc2Cl)CC1=O (stereo not shown) [compound 22789] | 2.61 | 2.62 | average improvement, 0.5 to 100 nM (DeaD strain BB579): 1.30 |
| CC(C)C(=O)C1C(=O)CC(c2ccc(F)cc2)CC1=O (stereo not shown) [compound 22837] | – | 1.72 | – |
| O=C1CC(C2CCCCC2)CC(=O)C1C(=O)c1ccccc1 (stereo not shown) [compound 22845] | 1.99 | 2.11 | – |
| CCCCC1CC(=O)C(C(=O)CC)C(=O)C1 (stereo not shown) [compound 22943] | 2.79 | 2.33 | – |
| CCC(=O)C1C(=O)CC(c2ccc(F)cc2)CC1=O (stereo not shown) [compound 22790] | 2.85 | 2.64 | average improvement, 0.5 to 100 nM (DeaD strain BB579): 1.37 |
